From publication PMC5663708, “Novel Benzylidene Thiazolidinedione Derivatives as Partial PPARγ Agonists and their Antidiabetic Effects on Type 2 Diabetes” (Scientific Reports, 2017)

How the values were obtained:
[1] = test system: NIH/3T3 mouse embryonic fibroblast cells; assay: XTT cytotoxicity assay on NIH/3T3 cells; conditions: Mus musculus, NIH3T3, 24 h
Protocol: XTT is reduced to soluble formazan by this enzyme and formazan is quantified and directly proportional to the number of viable cells. […] NIH/3T3 cells were seeded at 1 × 10^4 cells into each well of 96-well plates. […] The XTT assay (Xenometrix, Allschwil, Switzerland) was performed according to the manufacturer’s instructions, after 24 h incubation with the compounds. The absorbance was determined after 2 h incubation at 480 nm with a reference wavelength of 680 nm using a microplate reader (BioTek, USA). […] The stock solutions of the compounds were prepared in DMSO and further dilutions were made with fresh culture medium. The final DMSO concentration was under 0.1%. Rosiglitazone and Pioglitazone were used as positive controls. All data were obtained from 3 independent experiments in quadruplicates.

[2] = test system: STZ-NA-induced diabetic rats; assay: Antidiabetic activity in STZ-NA-induced type 2 diabetic rats
Protocol: The test dose was fixed based on the predicted LD50 value. […] Diabetic rats were orally treated with the test compounds at a dose of 36 mg/kg body weight for a period of 15 days. Fasting blood glucose of control, diabetic-untreated and diabetic-treated rats were tested on Days 1, 3, 7 and 15 of the treatment period (Fig. 6A).
Male Wistar strain rats weighing about 160–200 g were used for animal studies. […] Rats were provided with rodent diet and water ad libitum. […] The animals were allowed to drink 5% glucose solution overnight to prevent STZ-NA-induced hypoglycemia[82],[83]. The rats were considered as diabetic if their blood glucose levels were above 250 mg/dL on the 3rd day after STZ-NA injection. The rats were divided into four groups of six animals in each group. Control animals received normal saline (Group I). Diabetic rats received STZ-NA injection (Group II). […] The blood glucose level of each group was checked at 1, 3, 7 and 15 Day by withdrawing blood from tail vein of the animal using glucose meter (ACCu-Chek active, Roche, Diagnostics USA).
After pharmacological screening for antidiabetic activity, the animals were subjected to overnight fasting and blood was collected from retro-orbital region under light anaesthesia for performing various biochemical experiments. All the biochemical experiments were performed using commercially available kits. Total Hb was estimated by cyanomethaemoglobin method, while HbA1c was estimated from whole blood using commercially available kits following the manufacturer guidelines (ERBA Diagnostics Inc, Accurex Biomedical Pvt. Ltd., Coral clinical systems, India). TG concentration was determined by GPO-POD enzymatic-colorimetric method. TC level was measured by the end point, CHOD-POD colorimetric methods. HDL-C was assayed by the method reported earlier. VLDL-C and LDL-C in plasma were calculated by the Friedewald formula: VLDL-C = TG/5; LDL-C = TC-(HDL-C + VLDL-C)[88]. Levels of serum urea, uric acid, and creatinine were measured using commercially available kits[89].
Rats were sacrificed under light anesthesia using diethylether at the end of the pharmacological and biochemical studies. […] Then, the tissue was sliced out into sections of 5 µm thickness by a rotator microtome and stained with hematoxylin-eosin. Obtained sections were examined by a Leica DME microscope, and representative photomicrographs were taken by a 7.1 megapixel Canon Power Shot S70 digital camera.

human PPARγ (hPPARγ) = molecular target: T1, human PPARγ (hPPARγ) (Homo sapiens, UniProt P37231); design: method as in earlier work; conditions: PPARγ activity of metaglidasen; cited from earlier work
T1 construct: expressed in transfected cells; host or cells: HepG2 (human hepatoblastoma), transient calcium phosphate transfection
T1 sequence (P37231 238-503 limits assumed): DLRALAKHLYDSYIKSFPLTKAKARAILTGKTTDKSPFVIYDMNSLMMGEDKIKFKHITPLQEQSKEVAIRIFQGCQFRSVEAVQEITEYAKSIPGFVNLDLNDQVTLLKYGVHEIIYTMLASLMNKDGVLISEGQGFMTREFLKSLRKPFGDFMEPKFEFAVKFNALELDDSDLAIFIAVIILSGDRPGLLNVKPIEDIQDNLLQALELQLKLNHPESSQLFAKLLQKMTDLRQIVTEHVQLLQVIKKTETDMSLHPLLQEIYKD

Row | SMILES | IC50 [1] [µM] | blood glucose levels ([2]; 36 mg/kg oral, 15 days, vs diabetic control rats) | Hb levels ([2]; 36 mg/kg oral, 15 days, vs disease control (STZ + NA)) | histological changes of pancreas (islets, β-cells) ([2]; 36 mg/kg, light microscopy, hematoxylin-eosin) | EC50 (human PPARγ (hPPARγ)) [µM] | Emax (human PPARγ (hPPARγ))
1 | CCc1ccc(CCOc2ccc(CC3SC(=O)NC3=O)cc2)nc1 (stereo not shown) [Pioglitazone, reference compound] | > 1000 | significantly reduced | significant increase | restored to near normal | – | –
2 | CN(CCOc1ccc(CC2SC(=O)NC2=O)cc1)c1ccccn1 (stereo not shown) [Rosiglitazone, reference compound] | 662 ± 18 | – | – | – | – | –
3 | CC(=O)NCCOC(=O)[C@H](Oc1cccc(C(F)(F)F)c1)c1ccc(Cl)cc1 [metaglidasen] | – | – | – | – | ~10 | around 10%
